# Laboratory results taken from article PMC6688997 (Nature Communications, 2019).
# How the values were obtained:
# [1] = Body weight of U-118 MG xenograft mice; type: in vivo, mouse; settings: for Body Weight Change(%) (average / SD): N 5
# HER4 = target: T1, HER4 (Homo sapiens, UniProt Q15303); assay: Kinase assay, 1 mM ATP; type: biochemical
# T1 construct: purchased Carna Biosciences
# [2] = Body weight of CTG-0848 PDX mice; type: in vivo, mouse; parameters: Body weight change (Supp Figure S5b), group average: unit not given here
# MRCKβ = target: T2, MRCKβ (Homo sapiens, UniProt Q9Y5S2); assay: Kinase assay, ATP Km; type: biochemical
# T2 construct: purchased Carna Biosciences
# T2 sequence (Q9Y5S2 whole entry): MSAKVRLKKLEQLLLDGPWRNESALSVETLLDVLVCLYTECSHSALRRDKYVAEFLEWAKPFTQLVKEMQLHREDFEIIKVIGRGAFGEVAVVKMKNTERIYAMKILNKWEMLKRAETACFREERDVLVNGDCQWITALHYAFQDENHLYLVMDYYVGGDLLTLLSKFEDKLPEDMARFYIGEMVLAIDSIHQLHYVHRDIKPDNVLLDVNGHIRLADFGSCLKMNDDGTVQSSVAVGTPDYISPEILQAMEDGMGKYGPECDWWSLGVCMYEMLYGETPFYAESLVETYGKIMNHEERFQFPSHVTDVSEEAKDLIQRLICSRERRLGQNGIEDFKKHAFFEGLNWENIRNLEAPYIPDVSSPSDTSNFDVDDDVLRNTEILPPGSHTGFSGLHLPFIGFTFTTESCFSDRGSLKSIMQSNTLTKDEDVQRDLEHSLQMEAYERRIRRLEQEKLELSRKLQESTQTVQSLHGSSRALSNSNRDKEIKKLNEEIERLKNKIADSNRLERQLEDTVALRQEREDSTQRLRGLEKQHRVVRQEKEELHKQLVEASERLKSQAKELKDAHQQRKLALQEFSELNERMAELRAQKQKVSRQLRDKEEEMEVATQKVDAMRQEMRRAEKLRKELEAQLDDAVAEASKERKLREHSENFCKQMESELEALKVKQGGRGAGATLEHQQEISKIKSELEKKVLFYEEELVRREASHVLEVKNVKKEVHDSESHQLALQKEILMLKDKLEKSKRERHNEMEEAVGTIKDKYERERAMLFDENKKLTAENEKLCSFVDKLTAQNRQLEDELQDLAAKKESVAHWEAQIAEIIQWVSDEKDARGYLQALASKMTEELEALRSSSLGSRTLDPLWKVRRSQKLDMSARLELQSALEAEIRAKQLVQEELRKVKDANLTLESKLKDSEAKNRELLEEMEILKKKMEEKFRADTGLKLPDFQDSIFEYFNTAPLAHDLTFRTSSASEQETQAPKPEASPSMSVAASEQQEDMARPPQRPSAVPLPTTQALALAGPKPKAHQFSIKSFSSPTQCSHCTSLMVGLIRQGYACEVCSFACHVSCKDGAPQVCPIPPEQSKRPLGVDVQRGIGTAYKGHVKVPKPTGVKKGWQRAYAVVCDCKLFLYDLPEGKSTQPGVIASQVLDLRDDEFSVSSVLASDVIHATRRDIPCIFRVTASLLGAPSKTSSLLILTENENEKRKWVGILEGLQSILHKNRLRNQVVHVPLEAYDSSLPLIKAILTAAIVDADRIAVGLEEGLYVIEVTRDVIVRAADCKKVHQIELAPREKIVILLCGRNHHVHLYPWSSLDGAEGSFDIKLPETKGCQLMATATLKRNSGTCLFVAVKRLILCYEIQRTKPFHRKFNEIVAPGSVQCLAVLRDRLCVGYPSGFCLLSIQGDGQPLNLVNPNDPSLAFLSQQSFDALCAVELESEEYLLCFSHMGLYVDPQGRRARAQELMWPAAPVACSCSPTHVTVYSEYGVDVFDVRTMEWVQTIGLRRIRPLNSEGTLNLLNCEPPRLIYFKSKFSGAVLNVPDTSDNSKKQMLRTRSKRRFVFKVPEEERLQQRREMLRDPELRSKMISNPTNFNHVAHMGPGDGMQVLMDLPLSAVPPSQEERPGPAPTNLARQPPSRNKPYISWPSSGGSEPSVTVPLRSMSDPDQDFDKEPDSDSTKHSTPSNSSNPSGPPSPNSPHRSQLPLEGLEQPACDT
# ITK = target: T3, ITK (Homo sapiens, UniProt Q08881); assay: Kinase assay, ATP Km; type: biochemical
# T3 construct: purchased Carna Biosciences
# NEK9 = target: T4, NEK9 (Homo sapiens, UniProt Q8TD19); assay: Kinase assay, ATP Km; type: biochemical
# T4 construct: purchased Carna Biosciences
# T4 sequence (Q8TD19 whole entry): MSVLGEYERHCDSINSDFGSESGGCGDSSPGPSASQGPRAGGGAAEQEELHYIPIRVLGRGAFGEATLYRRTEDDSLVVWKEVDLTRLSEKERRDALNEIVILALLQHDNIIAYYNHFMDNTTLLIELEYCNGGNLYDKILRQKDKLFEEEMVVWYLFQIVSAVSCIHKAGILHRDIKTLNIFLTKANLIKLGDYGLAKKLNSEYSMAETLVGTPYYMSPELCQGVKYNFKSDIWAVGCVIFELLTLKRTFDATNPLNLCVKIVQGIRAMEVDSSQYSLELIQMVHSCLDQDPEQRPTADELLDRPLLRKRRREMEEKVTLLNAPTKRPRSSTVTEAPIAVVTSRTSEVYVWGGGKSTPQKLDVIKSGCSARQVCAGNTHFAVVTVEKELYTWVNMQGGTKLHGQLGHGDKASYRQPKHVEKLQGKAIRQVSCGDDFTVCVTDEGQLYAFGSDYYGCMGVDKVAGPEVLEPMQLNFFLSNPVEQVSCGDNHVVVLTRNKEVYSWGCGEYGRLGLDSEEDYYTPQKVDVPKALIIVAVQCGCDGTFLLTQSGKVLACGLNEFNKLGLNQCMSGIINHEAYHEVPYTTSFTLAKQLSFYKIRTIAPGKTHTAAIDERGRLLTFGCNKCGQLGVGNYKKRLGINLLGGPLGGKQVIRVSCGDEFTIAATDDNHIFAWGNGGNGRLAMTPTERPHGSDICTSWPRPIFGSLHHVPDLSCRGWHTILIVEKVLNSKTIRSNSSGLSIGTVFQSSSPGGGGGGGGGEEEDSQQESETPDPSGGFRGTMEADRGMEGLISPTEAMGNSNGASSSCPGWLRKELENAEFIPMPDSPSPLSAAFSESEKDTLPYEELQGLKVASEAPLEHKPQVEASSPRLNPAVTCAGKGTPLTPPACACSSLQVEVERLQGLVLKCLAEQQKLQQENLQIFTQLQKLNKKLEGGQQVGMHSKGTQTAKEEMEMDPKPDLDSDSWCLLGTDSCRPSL
# MELK = target: T5, MELK (Homo sapiens, UniProt Q14680); assay: Kinase assay, ATP Km; type: biochemical
# T5 construct: purchased Carna Biosciences
# T5 sequence (Q14680 whole entry): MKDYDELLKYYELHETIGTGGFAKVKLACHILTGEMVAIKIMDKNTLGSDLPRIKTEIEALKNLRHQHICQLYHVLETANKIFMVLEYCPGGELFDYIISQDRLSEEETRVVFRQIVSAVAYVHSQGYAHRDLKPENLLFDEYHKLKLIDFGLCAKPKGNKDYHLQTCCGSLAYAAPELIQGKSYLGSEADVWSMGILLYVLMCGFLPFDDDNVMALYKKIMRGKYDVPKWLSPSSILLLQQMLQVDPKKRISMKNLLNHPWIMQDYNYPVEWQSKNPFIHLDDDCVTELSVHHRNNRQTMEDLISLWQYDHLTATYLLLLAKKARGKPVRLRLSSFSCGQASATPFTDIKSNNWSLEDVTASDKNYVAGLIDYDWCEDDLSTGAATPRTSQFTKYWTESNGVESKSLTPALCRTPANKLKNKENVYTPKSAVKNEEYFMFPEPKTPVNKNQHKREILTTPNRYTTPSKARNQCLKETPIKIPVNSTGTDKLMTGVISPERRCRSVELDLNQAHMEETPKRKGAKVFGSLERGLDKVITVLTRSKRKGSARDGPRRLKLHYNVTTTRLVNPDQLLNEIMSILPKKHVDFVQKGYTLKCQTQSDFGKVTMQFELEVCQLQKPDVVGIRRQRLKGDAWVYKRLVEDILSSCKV
# MINK = target: T6, MINK (Homo sapiens, UniProt Q8N4C8); assay: Kinase assay, ATP Km; type: biochemical
# T6 construct: purchased Carna Biosciences
# T6 sequence (Q8N4C8 whole entry): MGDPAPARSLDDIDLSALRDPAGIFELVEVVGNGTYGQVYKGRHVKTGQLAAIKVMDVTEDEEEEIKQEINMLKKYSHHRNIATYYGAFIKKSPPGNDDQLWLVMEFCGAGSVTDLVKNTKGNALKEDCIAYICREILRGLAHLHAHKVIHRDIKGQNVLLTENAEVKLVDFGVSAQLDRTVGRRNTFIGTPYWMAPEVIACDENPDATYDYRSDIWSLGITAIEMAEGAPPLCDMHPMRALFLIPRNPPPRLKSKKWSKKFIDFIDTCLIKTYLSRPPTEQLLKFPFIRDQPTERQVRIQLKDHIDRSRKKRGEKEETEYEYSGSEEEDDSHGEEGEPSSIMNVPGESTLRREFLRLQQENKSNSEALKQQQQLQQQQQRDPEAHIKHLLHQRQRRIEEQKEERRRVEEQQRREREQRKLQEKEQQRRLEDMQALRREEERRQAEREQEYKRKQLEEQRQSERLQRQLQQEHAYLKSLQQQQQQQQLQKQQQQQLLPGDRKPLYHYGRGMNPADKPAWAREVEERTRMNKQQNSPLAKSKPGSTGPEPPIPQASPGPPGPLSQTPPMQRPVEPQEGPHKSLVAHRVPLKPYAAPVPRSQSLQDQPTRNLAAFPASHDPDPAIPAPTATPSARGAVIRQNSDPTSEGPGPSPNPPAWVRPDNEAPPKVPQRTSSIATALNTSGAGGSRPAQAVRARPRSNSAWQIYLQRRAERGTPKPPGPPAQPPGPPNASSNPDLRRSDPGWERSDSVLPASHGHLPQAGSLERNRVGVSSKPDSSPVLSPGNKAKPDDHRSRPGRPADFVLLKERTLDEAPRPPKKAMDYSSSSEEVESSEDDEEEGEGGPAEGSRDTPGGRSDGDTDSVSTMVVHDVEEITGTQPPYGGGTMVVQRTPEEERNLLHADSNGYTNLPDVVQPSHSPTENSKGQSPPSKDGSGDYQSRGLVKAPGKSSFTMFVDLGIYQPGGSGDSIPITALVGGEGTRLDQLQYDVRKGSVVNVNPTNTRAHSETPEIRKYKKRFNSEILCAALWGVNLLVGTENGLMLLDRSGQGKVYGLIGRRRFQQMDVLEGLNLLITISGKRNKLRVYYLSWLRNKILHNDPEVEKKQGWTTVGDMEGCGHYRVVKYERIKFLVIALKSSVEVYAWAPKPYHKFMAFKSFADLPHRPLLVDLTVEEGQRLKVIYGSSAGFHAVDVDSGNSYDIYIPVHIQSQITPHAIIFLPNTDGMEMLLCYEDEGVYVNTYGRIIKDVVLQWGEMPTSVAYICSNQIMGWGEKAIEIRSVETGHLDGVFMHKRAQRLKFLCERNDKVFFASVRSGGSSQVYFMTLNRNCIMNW
# CGK2 = CGK2 (Homo sapiens, UniProt Q13237); assay: Kinase assay, ATP Km; type: biochemical
# FGFR1 = target: T7, FGFR1 (Homo sapiens, UniProt P11362); assay: Kinase assay, ATP Km; type: biochemical
# T7 construct: purchased Carna Biosciences
# CDK9/CycT1 = CDK9/CycT1 (Homo sapiens, UniProt P50750); assay: Kinase assay, ATP Km; type: biochemical
# PKD2 = target: T8, PKD2 (Homo sapiens, UniProt Q9BZL6); assay: Kinase assay, ATP Km; type: biochemical
# T8 construct: purchased Carna Biosciences
smiles,measurement,setting,value
C[C@@H](N)COc1ccc(-c2cnc3ccc(N[C@H](C)c4cccc(F)c4)nn23)cc1.O=C(O)CCCCC(=O)O [DS-6051b],Body Weight Change(%) (average / SD),"[1]; 50 mg/kg, day 12",2.3%
same,Body Weight Change(%) (average / SD),"[1]; 50 mg/kg, day 13",2.9%
same,Body Weight Change(%) (average / SD),"[1]; 50 mg/kg, day 14",3.9%
same,Body Weight Change(%) (average / SD),"[1]; 50 mg/kg, day 15",3.5%
same,Body Weight Change(%) (average / SD),"[1]; 50 mg/kg, day 16",4.9%
same,Body Weight Change(%) (average / SD),"[1]; 50 mg/kg, day 17",4.4%
same,Body Weight Change(%) (average / SD),"[1]; 50 mg/kg, day 18",5.5%
same,Body Weight Change(%) (average / SD),"[1]; 100 mg/kg, day 0",0.0%
same,Body Weight Change(%) (average / SD),"[1]; 100 mg/kg, day 1",-0.7%
same,Body Weight Change(%) (average / SD),"[1]; 100 mg/kg, day 2",2.0%
same,Body Weight Change(%) (average / SD),"[1]; 100 mg/kg, day 3",2.9%
same,Body Weight Change(%) (average / SD),"[1]; 100 mg/kg, day 4",3.6%
same,Body Weight Change(%) (average / SD),"[1]; 100 mg/kg, day 5",4.8%
same,Body Weight Change(%) (average / SD),"[1]; 100 mg/kg, day 6",3.7%
same,Body Weight Change(%) (average / SD),"[1]; 100 mg/kg, day 7",7.0%
same,Body Weight Change(%) (average / SD),"[1]; 100 mg/kg, day 8",5.7%
same,Body Weight Change(%) (average / SD),"[1]; 100 mg/kg, day 9",5.0%
same,Body Weight Change(%) (average / SD),"[1]; 100 mg/kg, day 10",4.2%
same,Body Weight Change(%) (average / SD),"[1]; 100 mg/kg, day 11",4.6%
same,Body Weight Change(%) (average / SD),"[1]; 100 mg/kg, day 12",5.5%
same,Body Weight Change(%) (average / SD),"[1]; 100 mg/kg, day 13",4.1%
same,Body Weight Change(%) (average / SD),"[1]; 100 mg/kg, day 14",5.1%
same,Body Weight Change(%) (average / SD),"[1]; 100 mg/kg, day 15",7.2%
same,Body Weight Change(%) (average / SD),"[1]; 100 mg/kg, day 16",8.9%
same,Body Weight Change(%) (average / SD),"[1]; 100 mg/kg, day 17",8.0%
same,Body Weight Change(%) (average / SD),"[1]; 100 mg/kg, day 18",7.6%
same,Body Weight Change(%) (average / SD),"[1]; 200 mg/kg, day 4",0.8%
same,Body Weight Change(%) (average / SD),"[1]; 200 mg/kg, day 5",0.5%
same,Body Weight Change(%) (average / SD),"[1]; 200 mg/kg, day 6",1.7%
same,Body weight loss,[1]; ≥25 mg/kg,without significant body weight loss
same,inhibition at 0.2 µM,HER4,28.5%
same,"Body weight change (Supp Figure S5b), group average","[2]; DS-6051b 10 mg/kg, day 0",0.0
same,"Body weight change (Supp Figure S5b), group average","[2]; DS-6051b 10 mg/kg, day 4",1.0
same,"Body weight change (Supp Figure S5b), group average","[2]; DS-6051b 10 mg/kg, day 7",-0.4
same,"Body weight change (Supp Figure S5b), group average","[2]; DS-6051b 10 mg/kg, day 11",0.9
same,"Body weight change (Supp Figure S5b), group average","[2]; DS-6051b 10 mg/kg, day 14",-0.56
same,"Body weight change (Supp Figure S5b), group average","[2]; DS-6051b 10 mg/kg, day 18",1.2
same,"Body weight change (Supp Figure S5b), group average","[2]; DS-6051b 10 mg/kg, day 21",0.7
same,"Body weight change (Supp Figure S5b), group average","[2]; DS-6051b 10 mg/kg, day 26",1.2
same,"Body weight change (Supp Figure S5b), group average","[2]; DS-6051b 10 mg/kg, day 28",7.1
same,"Body weight change (Supp Figure S5b), group average","[2]; DS-6051b 30 mg/kg, day 0",0.0
same,"Body weight change (Supp Figure S5b), group average","[2]; DS-6051b 30 mg/kg, day 4",1.8
same,"Body weight change (Supp Figure S5b), group average","[2]; DS-6051b 30 mg/kg, day 7",-0.32
same,"Body weight change (Supp Figure S5b), group average","[2]; DS-6051b 30 mg/kg, day 11",0.8
same,"Body weight change (Supp Figure S5b), group average","[2]; DS-6051b 30 mg/kg, day 14",-0.5
same,"Body weight change (Supp Figure S5b), group average","[2]; DS-6051b 30 mg/kg, day 18",1.7
same,"Body weight change (Supp Figure S5b), group average","[2]; DS-6051b 30 mg/kg, day 21",2.2
same,"Body weight change (Supp Figure S5b), group average","[2]; DS-6051b 30 mg/kg, day 26",-0.07
same,"Body weight change (Supp Figure S5b), group average","[2]; DS-6051b 30 mg/kg, day 28",5.1
same,"Body weight change (Supp Figure S5b), group average","[2]; DS-6051b 100 mg/kg, day 0",0.0
same,"Body weight change (Supp Figure S5b), group average","[2]; DS-6051b 100 mg/kg, day 4",0.53
same,"Body weight change (Supp Figure S5b), group average","[2]; DS-6051b 100 mg/kg, day 7",0.23
same,"Body weight change (Supp Figure S5b), group average","[2]; DS-6051b 100 mg/kg, day 11",1.6
same,"Body weight change (Supp Figure S5b), group average","[2]; DS-6051b 100 mg/kg, day 14",0.18
same,"Body weight change (Supp Figure S5b), group average","[2]; DS-6051b 100 mg/kg, day 18",4.3
same,"Body weight change (Supp Figure S5b), group average","[2]; DS-6051b 100 mg/kg, day 21",2.5
same,"Body weight change (Supp Figure S5b), group average","[2]; DS-6051b 100 mg/kg, day 26",0.66
same,"Body weight change (Supp Figure S5b), group average","[2]; DS-6051b 100 mg/kg, day 28",4.5
same,Body weight loss,[2]; ≥10 mg/kg,without significant body weight loss
same,inhibition at 0.04 µM,MRCKβ,7.6%
same,inhibition at 0.04 µM,ITK,67.5%
same,inhibition at 0.04 µM,NEK9,1.5%
same,inhibition at 0.04 µM,MELK,-2.2%
same,inhibition at 0.04 µM,MINK,-0.0629%
same,inhibition at 0.04 µM,CGK2,-2.6%
same,inhibition at 0.04 µM,FGFR1,39.6%
same,inhibition at 0.04 µM,CDK9/CycT1,8.5%
same,inhibition at 0.04 µM,PKD2,-6.3%
